This note sets out measurements from PMC9607644, “Glycoconjugation of Quinoline Derivatives Using the C-6 Position in Sugars as a Strategy for Improving the Selectivity and Cytotoxicity of Functionalized Compounds” (Molecules, 2022).

For experiment [1], the system named is MCF-7 cells. Description: Clonogenic assay, MCF-7. The experiment is classed as cell-based, human. Particulars: IC50 concentration 72 h, then 10 days in fresh medium. As for the experimental part:
MCF-7 and HCT-116 cells were treated with type A glycoconjugates and their ability to proliferate was observed. […] The formed colonies were stained with crystal violet (Figure 5).
To determine the number of colonies forming by cells after exposure to the test compounds, a clonogenic assay was performed as reported in the literature. The cells were seeded into 6-well plates at a density of 1 × 10^5 (HCT-116) or 2 × 10^5 (MCF-7, NHDF-Neo) per well (3 mL) and allowed to attach for 24 h under standard conditions with 5% CO2 at 37 °C. The following day, the medium was removed and cells were treated with solutions of test compounds in fresh medium at a dose equal to their IC50 values. Control cells were grown with fresh medium supplemented with 0.5% DMSO. After 72 h of incubation, the cells were collected by trypsinization and then reseeded into new 6-well plates at a density of 1000 cells/well/3 mL. The plates with cells were incubated for 10 days under standard conditions with 5% CO2 at 37 °C. After this time, the medium was removed and the cells were washed with PBS, fixed with ice-cold ethanol (-20 °C) for 3 min, and washed again with PBS. Finally, cells were stained with crystal violet (0.01% in H2O; Sigma-Aldrich, Taufkirchen, Germany) for 20 min. The plates were then washed with H2O and allowed to air-dry.

For experiment [2], the system named is MCF-7 cells. Description: Wound healing assay, MCF-7. The experiment is classed as cell-based, human. The conditions noted are these: IC50 concentration, observed for 72 h. As for the experimental part: (§1) This experiment consisted in making a “wound” in a confluent monolayer of HCT-116 and MCF-7 cells, which were next treated with the test compounds at their IC50 concentrations. […] In the control, cell migration from the edges of the wound is visible, gradually filling the gap. After 72 h, the wounds are almost completely covered with cells. In the same way, cell migration is observed in healthy NHDF cells.
(§2) To analyze the migration properties of cells exposed to test compounds, a wound-healing assay was performed as reported in the literature. The cells were seeded into 6-well plates at a density of 3 × 10^5 (HCT-116) or 4 × 10^5 (MCF-7, NHDF-Neo) per well (3 mL) and allowed to attach for 24 h under standard conditions with 5% CO2 at 37 °C. After forming a confluent monolayer, a linear scratch in each sample with a 200 µL pipette tip was made and the first photo at time zero was taken. The cells were washed with PBS and then treated with solutions of test compounds in a fresh medium at a dose equal to their IC50 values. Control cells were grown with fresh medium supplemented with 0.5% DMSO. The cells were incubated and monitored for 72 h under standard conditions with 5% CO2 at 37 °C. Cell monitoring and photos were taken using Live Cell Movie Analyzer, JuLI™ Br & FL (NanoEnTek Inc., Seoul, Korea).

Another experiment relates to HCT-116 cells. Description: Wound healing assay, HCT-116. The experiment is classed as cell-based, human. The conditions noted are these: IC50 concentration, observed for 72 h. As for the experimental part: as §1, §2
For a further experiment, the system named is NHDF-Neo cells. Description: Cell cycle analysis by flow cytometry, NHDF-Neo. The experiment is classed as cell-based, human. Particulars: IC50 dose, 24 h. The text has this: After determining the type of cell death caused by the test compounds, the flow cytometry technique was used to study their influence on potential changes in the course of the cell cycle of the HCT-116, MCF-7, and NHDF-Neo lines. The cell cycle is the sequence of growth and division of cells, both normal and cancerous. This process begins from the resting phase (G0) through the active growth phases (G1, S, G2), leading to mitosis (M) in which the cell’s nucleus divides. […] After this time, cells were harvested and treated with a buffer to lysate the cells and isolate the cell nuclei. Propidium iodide was used to assess the amount of DNA in particular phases of the cell cycle. Histograms of DNA content in cells are presented in the Supplementary Materials (Figure S74).
The cell cycle and the type of cell death induced by the test compounds were measured by using flow cytometry according to the manufacturer’s protocol. The cells were seeded into 6-well plates at a density of 3 × 10^5 (HCT-116) or 4 × 10^5 (MCF-7, NHDF-Neo) per well (3 mL) and allowed to attach for 24 h under standard conditions with 5% CO2 at 37 °C. The following day, the medium was removed and cells were treated with solutions of test compounds in fresh medium at a dose equal to their IC50 values. Control cells were grown with fresh medium supplemented with 0.5% DMSO. After 24 h of incubation, the cells were collected by trypsinization. Then, samples were centrifuged (3 min, 2000 rpm, RT) and washed with PBS, after which the cells were centrifuged again (3 min, 2000 rpm, RT) and the supernatant was carefully removed. The resulting precipitate contained cells, which were used for flow cytometry experiments.
For cell cycle analysis, the cells were suspended in 300 μL of hypotonic buffer (consisting of: sodium citrate dihydrate 1 g/L, propidium iodide (PI) 1 mg/mL, RNAse A 10 mg/mL (EURx, Gdańsk, Poland), Triton X-100 1:9), mixed gently and incubated in the dark at room temperature for 20–30 min. […]

The subject of a further experiment is ctDNA. Description: Intercalation study, UV-Vis absorption titration with ctDNA. The experiment is classed as binding, calf. The conditions noted are these: 50 µM glycoconjugate, ctDNA 3 to 300 µM, Tris-HCl pH 7.5, 2 h 37 °C. As for the experimental part:
Due to the steric and electron features, quinoline-based compounds are well-known DNA intercalating agents. Therefore, the antiproliferative action of quinoline-related compounds can be related among others to intercalating between two adjacent base pairs of duplex DNA and inhibiting nucleic acid synthesis. […] The binding of the A-2 and E-2 to ctDNA has been characterized through absorption titration, which is an effective technique for DNA intercalation studies. The experiments were carried out for a constant concentration of glycoconjugates with increasing concentrations of ctDNA.
For the DNA binding studies, all experiments were carried out in molecular biology grade Tris-HCl buffer at pH 7.5 (EURx, Poland). The purity of the calf thymus DNA (ctDNA) (Sigma-Aldrich, St. Louis, MO, USA) was determined by measuring the ratio of UV absorbance at 260 and 280 nm. Here, the ratio was in the range of 1.8–1.9, indicating the DNA was sufficiently free from protein. The concentration of ctDNA was determined from the absorbance at 260 nm and using a molar absorption coefficient ε = 6600 M^−1 cm^−1 [68]. […] The samples were incubated for 2 h at 37 °C with gently shaking and the absorption spectra were measured using a UV–Vis-NIR spectrophotometer JASCO V-570 (Tokyo, Japan) in the range of 200–400 nm.

Take `CC(=O)OC1O[C@H](Cn2cc(COc3cccc4cccnc34)nn2)[C@@H](OC(C)=O)[C@H](OC(C)=O)[C@H]1OC(C)=O` (stereo partly shown) [Compound A-1]: in the experiment on MCF-7 cells [1], the “clonogenic potential, MCF-7” value is “able to decrease the clonogenic potential”. For the same compound, the “cell migration, MCF-7” value with MCF-7 cells [2] is recorded as “significantly slower migration”. Moreover, the “cell migration, HCT-116” value in the experiment on HCT-116 cells is “significantly slower migration”. The “cell cycle phase distribution in words, NHDF-Neo” value in the experiment on NHDF-Neo cells is “slightly decreased the number of cells in the G2/M phase with a simultaneous slight increase in the percentage of cells in the G0/G1 phase”.
Regarding `OC1O[C@H](Cn2cc(COc3cccc4cccnc34)nn2)[C@@H](O)[C@H](O)[C@H]1O` (stereo partly shown) [Compound A-2], in the experiment on MCF-7 cells [1], the “clonogenic potential, MCF-7” value is “able to decrease the clonogenic potential”. The “cell migration, MCF-7” value in the experiment with MCF-7 cells [2] is on record as “significantly slower migration”. In the experiment with HCT-116 cells, the “cell migration, HCT-116” value is “significantly slower migration”. The “binding to ctDNA, change of UV-Vis absorption spectrum” value in the experiment on ctDNA was “hypochromic and bathochromic effects”. The “cell cycle phase distribution in words, NHDF-Neo” value with NHDF-Neo cells is listed as “slightly decreased the number of cells in the G2/M phase with a simultaneous slight increase in the percentage of cells in the G0/G1 phase”.
Turning to `OC[C@H]1O[C@@H](n2cc(COc3cccc4cccnc34)nn2)[C@H](O)[C@@H](O)[C@@H]1O` [Compound E-2, reference compound], the “binding to ctDNA, change of UV-Vis absorption spectrum” value in the experiment with ctDNA was “hypochromic and bathochromic effects”.
